According to patent publication US10017527B2, “KLK4 inhibitors” (Universiteit Antwerpen, priority 2014, dated 2018):
Like-named read-outs stand apart in the source and are kept apart here.

Columns and labels:
Format in all cases: biochemical
KLK4 [1] = molecular target: T1, KLK4 (Homo sapiens, UniProt Q9Y5K2); test: KLK4 enzymatic inhibition, fluorogenic substrate Boc-Val-Pro-Arg-AMC; settings: 15 min pre-incubation at 37° C., Tris buffer pH 8.3; read-out: IC50 KLK4
T1 construct: purchased Viktor Magdolen (TUM), supplied by an academic laboratory
Description: The substrate was obtained form Bachem and the enzyme was provided by Viktor Magdolen (TUM). The reaction was monitored with an excitation wavelength of 355 nm and emission wavelength of 460 nm. The initial rate was determined between 2500000 and 4500000 mRFU/min. The reaction mixture contained 25 μM substrate and approximately 1 mU of enzyme in 145 μL of buffer in a final volume of […]. A 50 mM Tris buffer, pH 8.3, was used. From each inhibitor concentration, 5 μL was added, obtaining a final concentration from 0 to 250 μM in a total volume of 0.2 mL. Activity measurements were routinely performed in duplicate. […] IC50 values were obtained by fitting the data with the four-parameter logistics equation using Grafit 7.
[formula] where s=slope factor, v=rate, I0=inhibitor concentration, and range=the fitted uninhibited value minus the background. The equation assumes they falls with increasing x.
(§1) Inhibitor stock solutions were prepared in DMSO and stored at −20° C. Because the compounds described in this paper completely inactivate KLK4 following pseudo first-order kinetics, the IC50 value is inversely correlated with the second-order rate constant of inactivation. For a simple pseudo first-order inactivation process, the activity after incubation with inhibitor (vi) varies with the inhibitor concentration (i), as described in the following equation: vi=v0×e^−k t, where vo is the activity in absence of inhibitor, k is the second-order rate constant of inactivation, and t is the time. The inactivation rate constant was determined from the time course of inhibition.

FXa = molecular target: T2, FXa (Homo sapiens, UniProt P00742); test: FXa inhibition, chromogenic substrate Biophen CS-11(32); settings: Tris buffer pH 8.3; read-out: IC50 FXa
T2 construct: purchased Nodia
Description: (§2) The IC50 values For KLK1, KLK2 and KLK8 were obtained in a similar way. For plasmin, tPA, thrombin, Fxa, HNE, Plasma kallikrein Chromogenic substrates were used (absorption: 405 nm). (KLK2, KLK4, KLK8 were supplied by Viktor Magdolen TUMunich (TUM)).

uPA (recombinant) = molecular target: T3, uPA (recombinant) (Homo sapiens, UniProt P00749); test: uPA inhibition, chromogenic substrate Biophen CS-61(44)
T3 construct: purchased Nodia

Matriptase = molecular target: T4, Matriptase (Homo sapiens, UniProt Q9Y5Y6); test: Matriptase inhibition; settings: Matriptase; read-out: IC50 MAT
T4 sequence (Q9Y5Y6 1-855): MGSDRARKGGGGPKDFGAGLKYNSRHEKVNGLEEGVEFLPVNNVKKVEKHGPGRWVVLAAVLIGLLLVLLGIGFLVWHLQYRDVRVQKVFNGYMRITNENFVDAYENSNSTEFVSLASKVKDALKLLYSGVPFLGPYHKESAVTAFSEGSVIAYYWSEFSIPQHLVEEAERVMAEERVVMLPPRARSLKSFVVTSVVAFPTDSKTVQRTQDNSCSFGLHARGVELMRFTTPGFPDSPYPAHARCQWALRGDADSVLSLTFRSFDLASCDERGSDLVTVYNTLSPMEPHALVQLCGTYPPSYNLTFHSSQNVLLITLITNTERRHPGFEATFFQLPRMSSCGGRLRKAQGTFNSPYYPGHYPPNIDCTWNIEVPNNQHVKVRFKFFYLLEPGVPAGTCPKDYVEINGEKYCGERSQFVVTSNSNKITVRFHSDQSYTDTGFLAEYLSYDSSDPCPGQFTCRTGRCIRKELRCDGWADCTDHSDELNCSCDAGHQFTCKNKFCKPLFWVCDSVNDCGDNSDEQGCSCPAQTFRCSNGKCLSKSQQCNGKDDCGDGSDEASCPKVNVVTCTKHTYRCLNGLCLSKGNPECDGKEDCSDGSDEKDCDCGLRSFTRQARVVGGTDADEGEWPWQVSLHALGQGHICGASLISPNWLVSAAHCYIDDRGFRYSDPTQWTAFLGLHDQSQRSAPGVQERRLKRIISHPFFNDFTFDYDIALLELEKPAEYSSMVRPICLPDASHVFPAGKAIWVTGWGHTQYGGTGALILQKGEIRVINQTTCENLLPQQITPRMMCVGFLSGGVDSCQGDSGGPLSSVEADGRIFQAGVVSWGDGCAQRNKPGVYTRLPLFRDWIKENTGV

KLK1 (human) = molecular target: T5, KLK1 (human) (Homo sapiens, UniProt P06870); test: KLK1 inhibition, fluorogenic substrate H-Pro-Phe-Arg-AMC; settings: Tris buffer pH 7.8; read-out: IC50 KLK1
T5 construct: purchased Prospec
Description: as §2

Plasmine (human plasma) = molecular target: T6, Plasmine (human plasma) (Homo sapiens, UniProt P00747); test: Plasmin inhibition, chromogenic substrate Biophen CS-21(66); settings: Plasmin; Tris buffer pH 7.4; read-out: IC50 PLM
T6 construct: purchased Sigma-Aldrich; host or cells: human plasma
Description: as §2

PlasmaKLK (human plasma) = molecular target: T7, PlasmaKLK (human plasma) (Homo sapiens, UniProt P03952); test: Plasma kallikrein inhibition, chromogenic substrate Biophen CS-31(02); settings: Plasma KLK; Tris buffer pH 7.8; read-out: IC50 pKLK
T7 construct: purchased Sigma-Aldrich; host or cells: human plasma
Description: as §2

Thrombine (human plasma) = molecular target: T8, Thrombine (human plasma) (Homo sapiens, UniProt P00734); test: Thrombin inhibition, chromogenic substrate Biophen CS-21(66)
T8 construct: purchased Sigma-Aldrich; host or cells: human plasma

tPA (recombinant) = molecular target: T9, tPA (recombinant) (Homo sapiens, UniProt P00750); test: tPA inhibition, chromogenic substrate Biophen CS-05(88); settings: Tris buffer pH 8.3; read-out: IC50 tPA
T9 construct: purchased Nodia
Description: as §2

KLK4 [2] = molecular target: T1, KLK4; test: KLK4 inactivation kinetics from progress curves (kobs vs inhibitor concentration); settings: irreversible binding to KLK4, Yes/No
Description: as §1
The inhibitor was mixed with the substrate (250 μM final concentration), and the buffer solution with the enzyme was added at the time zero. […] The progress curves show the absorbance of aminomethylcoumarine produced as a function of time. Initially, no inhibitor is bound to the enzyme, and the tangent to the progress curve (dA/dt) is proportional to the concentration of the free enzyme. The concentration of free enzyme decreases over time due to the kinetics of inhibitor binding, as described above. Progress curves were recorded in pseudo first-order conditions ([I]0>>[E]0) and with less than 10% conversion of the substrate during the entire time course. In these conditions, dA/dt decreases exponentially with time. The progress curves were fitted with the integrated rate equation to yield a value for kobs, a pseudofirst-order rate constant At=v0[1−e^−k^obs^t]/kobs+A0 where At=absorbance at time t, A0=absorbance at time zero, and v0=uninhibited initial rate.
The apparent second-order rate constant (kapp) was calculated from the slope of the linear part of the plot of kobs versus the inhibitor concentration ([I]0). In case of competition between the inhibitor and the substrate, kapp is smaller than the “real” second order rate constant k discussed above because a certain fraction of the enzyme is present as an enzyme-substrate complex. kapp depends on the substrate concentration used in the experiment, as described by Lambeir et al. (Lambeir, Borloo et al. 1996).

[3] = Tris buffer pH 8.8, read-out: IC50 uPA
[4] = Thrombin, Tris buffer pH 8.3, read-out: IC50 THR

T6 sequence (P00747 581-810 limits assumed): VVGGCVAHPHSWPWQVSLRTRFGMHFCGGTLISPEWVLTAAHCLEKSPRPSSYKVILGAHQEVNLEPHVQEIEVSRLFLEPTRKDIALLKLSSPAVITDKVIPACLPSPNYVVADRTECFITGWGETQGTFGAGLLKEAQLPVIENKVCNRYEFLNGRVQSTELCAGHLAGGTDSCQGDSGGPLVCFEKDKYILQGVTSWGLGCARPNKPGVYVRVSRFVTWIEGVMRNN
T6 sequence (P00747 98-580 partner limits assumed): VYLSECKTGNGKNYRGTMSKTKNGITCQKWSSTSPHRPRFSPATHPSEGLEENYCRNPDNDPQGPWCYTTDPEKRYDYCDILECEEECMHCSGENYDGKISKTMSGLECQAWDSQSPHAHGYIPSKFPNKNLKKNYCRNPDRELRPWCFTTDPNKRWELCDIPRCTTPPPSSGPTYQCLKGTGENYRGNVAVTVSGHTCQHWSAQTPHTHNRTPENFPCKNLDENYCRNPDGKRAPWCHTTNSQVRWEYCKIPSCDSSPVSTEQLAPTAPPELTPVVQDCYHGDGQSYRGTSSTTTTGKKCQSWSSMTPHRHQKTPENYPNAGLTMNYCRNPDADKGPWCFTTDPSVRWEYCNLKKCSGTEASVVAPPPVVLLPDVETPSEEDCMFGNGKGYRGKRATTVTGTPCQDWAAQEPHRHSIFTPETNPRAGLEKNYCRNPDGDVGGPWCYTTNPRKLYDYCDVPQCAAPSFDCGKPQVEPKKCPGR
T1 sequence (Q9Y5K2 31-254): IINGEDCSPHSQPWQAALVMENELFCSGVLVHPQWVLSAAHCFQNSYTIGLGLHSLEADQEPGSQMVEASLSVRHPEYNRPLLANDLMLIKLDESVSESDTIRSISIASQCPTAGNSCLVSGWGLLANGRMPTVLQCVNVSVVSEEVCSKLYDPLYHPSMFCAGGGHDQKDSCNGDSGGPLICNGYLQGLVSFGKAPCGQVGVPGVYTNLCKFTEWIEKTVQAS
T7 sequence (P03952 391-638 limits assumed): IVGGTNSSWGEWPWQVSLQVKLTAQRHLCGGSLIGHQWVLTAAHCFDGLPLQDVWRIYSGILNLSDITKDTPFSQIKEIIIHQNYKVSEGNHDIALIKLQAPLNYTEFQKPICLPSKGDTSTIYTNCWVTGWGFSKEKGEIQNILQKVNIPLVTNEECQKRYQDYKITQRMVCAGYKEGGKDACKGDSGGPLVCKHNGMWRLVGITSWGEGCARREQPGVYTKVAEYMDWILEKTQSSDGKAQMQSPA
T7 sequence (P03952 20-390 partner limits assumed): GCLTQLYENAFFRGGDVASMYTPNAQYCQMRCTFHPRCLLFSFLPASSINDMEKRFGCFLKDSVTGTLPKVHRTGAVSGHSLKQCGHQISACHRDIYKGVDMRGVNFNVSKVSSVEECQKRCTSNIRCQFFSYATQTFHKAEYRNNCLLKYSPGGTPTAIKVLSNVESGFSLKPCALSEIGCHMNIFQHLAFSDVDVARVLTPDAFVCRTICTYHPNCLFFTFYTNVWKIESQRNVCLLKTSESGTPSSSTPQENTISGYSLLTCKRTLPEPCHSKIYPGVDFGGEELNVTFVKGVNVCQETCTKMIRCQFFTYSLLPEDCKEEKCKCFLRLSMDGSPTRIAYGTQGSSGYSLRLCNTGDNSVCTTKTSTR
T9 sequence (P00750 36-562, species assumed): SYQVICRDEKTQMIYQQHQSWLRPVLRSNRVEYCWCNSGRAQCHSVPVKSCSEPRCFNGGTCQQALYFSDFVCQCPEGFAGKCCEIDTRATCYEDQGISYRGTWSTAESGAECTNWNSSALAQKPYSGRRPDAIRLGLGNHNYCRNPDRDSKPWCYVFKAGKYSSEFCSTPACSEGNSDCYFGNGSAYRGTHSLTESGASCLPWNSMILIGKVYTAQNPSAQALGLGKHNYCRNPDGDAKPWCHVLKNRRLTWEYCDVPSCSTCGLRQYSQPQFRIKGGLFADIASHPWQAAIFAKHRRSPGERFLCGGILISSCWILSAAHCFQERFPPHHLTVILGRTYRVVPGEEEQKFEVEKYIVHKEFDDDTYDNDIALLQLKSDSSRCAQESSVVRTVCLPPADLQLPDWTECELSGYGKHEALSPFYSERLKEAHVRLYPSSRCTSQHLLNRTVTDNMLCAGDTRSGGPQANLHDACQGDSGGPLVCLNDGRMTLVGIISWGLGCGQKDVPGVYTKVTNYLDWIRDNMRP
T2 sequence (P00742 235-488 limits assumed): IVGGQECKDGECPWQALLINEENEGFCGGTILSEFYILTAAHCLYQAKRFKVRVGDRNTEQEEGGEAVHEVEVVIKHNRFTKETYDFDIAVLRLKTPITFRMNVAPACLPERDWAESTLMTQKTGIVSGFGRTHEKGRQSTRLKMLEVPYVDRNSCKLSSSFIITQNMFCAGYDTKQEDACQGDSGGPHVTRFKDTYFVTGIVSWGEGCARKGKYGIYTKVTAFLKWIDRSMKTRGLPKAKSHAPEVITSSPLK
T2 sequence (P00742 41-179 partner limits assumed): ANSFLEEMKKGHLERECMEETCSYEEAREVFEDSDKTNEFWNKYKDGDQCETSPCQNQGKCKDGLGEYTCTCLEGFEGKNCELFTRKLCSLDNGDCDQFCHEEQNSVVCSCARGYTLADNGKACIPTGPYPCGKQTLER
T5 sequence (P06870 25-262): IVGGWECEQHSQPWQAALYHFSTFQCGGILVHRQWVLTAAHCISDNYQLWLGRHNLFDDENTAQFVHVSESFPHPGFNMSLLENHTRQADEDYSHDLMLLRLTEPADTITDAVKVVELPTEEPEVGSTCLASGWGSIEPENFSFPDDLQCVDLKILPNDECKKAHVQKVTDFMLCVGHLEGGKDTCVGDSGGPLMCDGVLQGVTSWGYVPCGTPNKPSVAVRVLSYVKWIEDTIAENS

Compound	IC50 (KLK4 [1])	IC50 (FXa)	IC50 (uPA (recombinant); [3])	IC50 (Matriptase)	IC50 (KLK1 (human))	IC50 (Plasmine (human plasma))	IC50 (PlasmaKLK (human plasma))	IC50 (Thrombine (human plasma); [4])	IC50 (tPA (recombinant))	IC50 (uPA (recombinant))	Irreversible (KLK4) (KLK4 [2])	IC50 (Thrombine (human plasma))
N=C(N)Nc1ccc(C(NS(=O)(=O)c2ccc(C(F)(F)F)cc2)P(=O)(Oc2ccccc2)Oc2ccccc2)cc1 (centres unmarked) [Compound 130]	< 0.1 µM	–	–	–	–	–	–	–	–	–	–	–
N=C(N)Nc1ccc(C(NC(=O)OCCOCCOCc2cn(CCOCCOCCOCCNC(=O)CCCC[C@H]3SC[C@H]4NC(=O)N[C@H]43)nn2)P(=O)(Oc2ccccc2)Oc2ccccc2)cc1 (stereo partly drawn) [Compound 135, 2-(2-((1-(13-oxo-17-((3aR,4R,6aS)-2-oxohexahydro-1H-thieno[3,4-d]imidazol-4-yl)-3,6,9-trioxa-12-azaheptadecyl)-1H-1,2,3-triazol-4-yl)methoxy)ethoxy)ethyl ((diphenoxyphosphoryl)(4-guanidinophenyl)methyl)carbamate]	< 0.1 µM	10 to 250 µM	2.5 to 10 µM	2.5 to 10 µM	2.5 to 10 µM	10 to 250 µM	10 to 250 µM	10 to 250 µM	–	–	–	–
C#CCOCCOCCOC(=O)NC(Cc1ccc(NC(=N)N)cc1)P(=O)(Oc1ccccc1)Oc1ccccc1 (centres unmarked) [UPA2, reference compound]	–	> 250 µM	–	0.1 to 1 µM	–	2.5 to 10 µM	10 to 250 µM	–	> 250 µM	< 0.1 µM	No	10 to 250 µM
diphenyl ((4-guanidinophenyl)(4-methoxyphenylsulfonamido)methyl)phosphonate [Compound 132]	0.1 to 1 µM	2.5 to 10 µM	2.5 to 10 µM	–	2.5 to 10 µM	2.5 to 10 µM	2.5 to 10 µM	2.5 to 10 µM	2.5 to 10 µM	–	–	–
diphenyl ((4-guanidinophenyl)(phenylsulfonamido)methyl)phosphonate [Compound 128]	0.1 to 1 µM	2.5 to 10 µM	2.5 to 10 µM	–	–	2.5 to 10 µM	2.5 to 10 µM	2.5 to 10 µM	2.5 to 10 µM	–	–	–
